Legend:
[1] = system: CNE; assay: Cytotoxicity against human CNE1 cells assessed as cell viability at 100 uM relative to control; format: functional; conditions: read-out: Activity
[2] = system: MDA-MB-468; assay: Cytotoxicity against human MDA-MB-468 cells assessed as cell viability at 100 uM relative to control; format: functional; conditions: read-out: Activity
[3] = system: Caco-2; assay: Cytotoxicity against human Caco2 cells assessed as cell viability at 100 uM relative to control; format: functional; conditions: read-out: Activity
[4] = system: Caco-2; assay: Cytotoxicity against human Caco2 cells assessed as reduction in cell viability; format: functional, cell-based
[5] = Cytotoxicity against human HK1 cells assessed as reduction in cell viability; format: functional, cell-based; conditions: HK-1
[6] = system: MDA-MB-231; assay: Cytotoxicity against human MDA-MB-231 cells assessed as reduction in cell viability; format: functional, cell-based
[7] = system: SW48; assay: Cytotoxicity against human SW48 cells assessed as cell viability at 100 uM relative to control; format: functional; conditions: read-out: Activity
[8] = system: HT-29; assay: Cytotoxicity against human HT-29 cells assessed as reduction in cell viability; format: functional, cell-based
[9] = system: HT-29; assay: Cytotoxicity against human HT-29 cells assessed as cell viability at 100 uM relative to control; format: functional; conditions: read-out: Activity
[10] = system: MCF-10A; assay: Cytotoxicity against human MCF10A cells assessed as reduction in cell viability; format: cell-based
[11] = system: A549; assay: Cytotoxicity against human A549 cells assessed as cell viability at 100 uM relative to control; format: functional; conditions: read-out: Activity
[12] = system: SW48; assay: Cytotoxicity against human SW48 cells assessed as reduction in cell viability; format: functional, cell-based
[13] = system: MDA-MB-468; assay: Cytotoxicity against human MDA-MB-468 cells assessed as reduction in cell viability; format: functional, cell-based
[14] = system: MDA-MB-231; assay: Cytotoxicity against human MDA-MB-231 cells assessed as cell viability at 100 uM relative to control; format: functional; conditions: read-out: Activity
[15] = system: T47D; assay: Cytotoxicity against human T47D cells assessed as cell viability at 100 uM relative to control; format: functional; conditions: read-out: Activity
[16] = system: SH-SY5Y; assay: Cytotoxicity against human SH-SY5Y cells assessed as reduction in cell viability; format: functional, cell-based
[17] = system: A549; assay: Cytotoxicity against human A549 cells assessed as reduction in cell viability; format: functional, cell-based
[18] = system: SH-SY5Y; assay: Cytotoxicity against human SH-SY5Y cells assessed as cell viability at 100 uM relative to control; format: functional; conditions: read-out: Activity
[19] = system: BXPC-3; assay: Cytotoxicity against human BxPC3 cells assessed as cell viability at 100 uM relative to control; format: functional; conditions: read-out: Activity
[20] = system: SUNE1; assay: Cytotoxicity against human SUNE1 cells assessed as reduction in cell viability; format: functional, cell-based
[21] = system: SUNE1; assay: Cytotoxicity against human SUNE1 cells assessed as cell viability at 100 uM relative to control; format: functional; conditions: read-out: Activity
[22] = system: ASPC1; assay: Cytotoxicity against human AsPC1 cells assessed as cell viability at 100 uM relative to control; format: functional; conditions: read-out: Activity
[23] = system: SK-BR-3; assay: Cytotoxicity against human SKBR3 cells assessed as cell viability at 100 uM relative to control; format: functional; conditions: read-out: Activity
[24] = system: ASPC1; assay: Cytotoxicity against human AsPC1 cells assessed as reduction in cell viability; format: functional, cell-based
[25] = system: HCT-116; assay: Cytotoxicity against human HCT116 cells assessed as reduction in cell viability; format: functional, cell-based
[26] = system: NCI-H1299; assay: Cytotoxicity against human H1299 cells assessed as reduction in cell viability; format: functional, cell-based
[27] = Cytotoxicity against human MCF10A cells assessed as cell viability at 100 uM relative to control; format: cell-based, MCF-10A; conditions: read-out: Activity
[28] = system: NCI-H1299; assay: Cytotoxicity against human H1299 cells assessed as cell viability at 100 uM relative to control; format: functional; conditions: read-out: Activity
[29] = system: T47D; assay: Cytotoxicity against human T47D cells assessed as reduction in cell viability; format: functional, cell-based
[30] = system: MCF7; assay: Cytotoxicity against human MCF7 cells assessed as cell viability at 100 uM relative to control; format: functional; conditions: read-out: Activity
[31] = system: CNE; assay: Cytotoxicity against human CNE1 cells assessed as reduction in cell viability; format: functional, cell-based
[32] = system: SW1990; assay: Cytotoxicity against human SW1990 cells assessed as cell viability at 100 uM relative to control; format: functional; conditions: read-out: Activity
[33] = system: BXPC-3; assay: Cytotoxicity against human BxPC3 cells assessed as reduction in cell viability; format: functional, cell-based
[34] = Cytotoxicity against human MRC5 cells assessed as cell viability at 100 uM relative to control; format: cell-based; conditions: read-out: Activity
[35] = system: SK-BR-3; assay: Cytotoxicity against human SKBR3 cells assessed as reduction in cell viability; format: functional, cell-based
[36] = system: MCF7; assay: Cytotoxicity against human MCF7 cells assessed as reduction in cell viability; format: functional, cell-based
[37] = system: HCT-116; assay: Cytotoxicity against human HCT116 cells assessed as cell viability at 100 uM relative to control; format: functional; conditions: read-out: Activity
[38] = system: SW1990; assay: Cytotoxicity against human SW1990 cells assessed as reduction in cell viability; format: functional, cell-based
[39] = Cytotoxicity against human HK1 cells assessed as cell viability at 100 uM relative to control; format: functional; conditions: HK-1, read-out: Activity
[40] = system: MRC5; assay: Cytotoxicity against human MRC5 cells assessed as reduction in cell viability; format: cell-based

Row | SMILES | viability at 100 µM [1] [%] | viability at 100 µM [2] [%] | viability at 100 µM [3] [%] | IC50 [4] [µM] | IC50 [5] [µM] | IC50 [6] [µM] | viability at 100 µM [7] [%] | IC50 [8] [µM] | viability at 100 µM [9] [%] | IC50 [10] [µM] | viability at 100 µM [11] [%] | IC50 [12] [µM] | IC50 [13] [µM] | viability at 100 µM [14] [%] | viability at 100 µM [15] [%] | IC50 [16] [µM] | IC50 [17] [µM] | viability at 100 µM [18] [%] | viability at 100 µM [19] [%] | IC50 [20] [µM] | other results
1 | O=[N+]([O-])c1ccc(NC(CCl)CCl)c([N+](=O)[O-])c1 | 70.5 | 61.3 | 105 | > 100 | > 100 | > 100 | 55.2 | > 100 | 89.1 | > 100 | 59.4 | > 100 | > 100 | 83.4 | 58.7 | > 100 | > 100 | 63.6 | 103 | > 100 | viability at 100 µM [21]: 68.6%; viability at 100 µM [22]: 106%; viability at 100 µM [23]: 71.6%; IC50 [24]: > 100 µM; IC50 [25]: > 100 µM; IC50 [26]: > 100 µM; viability at 100 µM [27]: 78.8%; viability at 100 µM [28]: 96.3%; IC50 [29]: 85.3 µM; viability at 100 µM [30]: 25.1%; IC50 [31]: > 100 µM; viability at 100 µM [32]: 69.8%; IC50 [33]: > 100 µM; viability at 100 µM [34]: 24.3%; IC50 [35]: > 100 µM; IC50 [36]: 44.3 µM; viability at 100 µM [37]: 73.1%; IC50 [38]: > 100 µM; viability at 100 µM [39]: 88.9%; IC50 [40]: 54.1 µM
2 | O=[N+]([O-])c1cc(C(F)(F)F)ccc1NC(CCl)CCl | 27.1 | 65.1 | 21.9 | 39.9 | > 100 | 54.5 | 32.8 | 87.8 | 47.1 | > 100 | 24.6 | 62.3 | > 100 | 32.1 | 25.6 | 62.5 | 33.3 | 33.7 | 62.9 | 92.9 | viability at 100 µM [21]: 42.3%; viability at 100 µM [22]: 51.1%; viability at 100 µM [23]: 38.5%; IC50 [24]: > 100 µM; IC50 [25]: 82.1 µM; IC50 [26]: > 100 µM; viability at 100 µM [27]: 77.1%; viability at 100 µM [28]: 52.4%; IC50 [29]: 35.1 µM; viability at 100 µM [30]: 21.4%; IC50 [31]: 32.1 µM; viability at 100 µM [32]: 42.1%; IC50 [33]: > 100 µM; viability at 100 µM [34]: 29.9%; IC50 [35]: 67.8 µM; IC50 [36]: 34.3 µM; viability at 100 µM [37]: 45.1%; IC50 [38]: 92.1 µM; viability at 100 µM [39]: 59.7%; IC50 [40]: 62.1 µM
